One assay concerns the target T1, IDH1 R132H (Homo sapiens, UniProt O75874, R132H).
T1 construct: 6xHis
Briefly: Biochemical assay for IDH inhibition (NADPH fluorescence), mutant IDH1 R132H. The conditions noted are these: 50 nM IDH1-R132H, 1 hour pre-incubation, in triplet. The gist of the method: (§1)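 Mutant enzyme (25 nM R132C or 50 nM R132H) was preincubated 1 h at room temperature with compound in pH 7.5 Tris buffer containing 1.33 mM α-KG, and the reaction was then started with NADPH (80 μM solution). NADPH consumption was followed by fluorescence (Ex 340/Em 460 nm) for 15 min. IC50 was derived from background-corrected linear rates relative to vehicle, run in triplicate.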

The next assay concerns the target T2, IDH1 R132C (Homo sapiens, UniProt O75874, R132C).
T2 construct: 6xHis
The assay is described as follows: Biochemical assay for IDH inhibition (NADPH fluorescence), mutant IDH1 R132C. Conditions: 25 nM IDH1-R132C, 1 hour pre-incubation, in triplet. In outline:
as §1

Assay [1] addresses T3, IDH (endogenous IDH1 R132C) in HT1080 cell (Homo sapiens, UniProt O75874, R132C).
T3 construct: which harbor endogenous heterozygous IDH1 R132C and R132H mutation respectively and accumulate D-2-HG
Briefly: Cell-based assay for IDH inhibition (decrease of D-2-HG) in HT1080 cells. Conditions: human fibrosarcoma cell line HT1080, 16 hours treatment, D-2-HG by LC-MS, in triplet. In outline: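 HT1080 cells with endogenous IDH1 R132C, grown in DMEM/10% FBS, treated with compound at several concentrations for 16 h. Metabolites extracted in cold 40% methanol/40% acetonitrile and D-2-HG measured by HILIC LC-MS/MS, normalized to glutamate. IC50 from D-2-HG relative to DMSO controls; run in triplicate.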

Molecules are shown by their SMILES. pIC50: −log10 of the molar value.

T2 sequence (O75874 whole entry R132C): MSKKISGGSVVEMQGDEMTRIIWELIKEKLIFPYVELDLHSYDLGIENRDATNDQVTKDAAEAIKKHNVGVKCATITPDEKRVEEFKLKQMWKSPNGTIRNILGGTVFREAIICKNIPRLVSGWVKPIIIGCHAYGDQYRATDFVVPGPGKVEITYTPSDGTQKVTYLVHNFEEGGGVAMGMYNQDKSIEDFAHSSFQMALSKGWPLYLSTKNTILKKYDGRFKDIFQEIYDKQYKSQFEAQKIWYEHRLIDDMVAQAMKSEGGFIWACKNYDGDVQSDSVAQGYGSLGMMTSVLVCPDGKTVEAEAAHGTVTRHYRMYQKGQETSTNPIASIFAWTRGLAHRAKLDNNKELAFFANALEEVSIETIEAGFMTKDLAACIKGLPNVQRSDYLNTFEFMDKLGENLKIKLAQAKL
T3 sequence (O75874 2-414 R132C): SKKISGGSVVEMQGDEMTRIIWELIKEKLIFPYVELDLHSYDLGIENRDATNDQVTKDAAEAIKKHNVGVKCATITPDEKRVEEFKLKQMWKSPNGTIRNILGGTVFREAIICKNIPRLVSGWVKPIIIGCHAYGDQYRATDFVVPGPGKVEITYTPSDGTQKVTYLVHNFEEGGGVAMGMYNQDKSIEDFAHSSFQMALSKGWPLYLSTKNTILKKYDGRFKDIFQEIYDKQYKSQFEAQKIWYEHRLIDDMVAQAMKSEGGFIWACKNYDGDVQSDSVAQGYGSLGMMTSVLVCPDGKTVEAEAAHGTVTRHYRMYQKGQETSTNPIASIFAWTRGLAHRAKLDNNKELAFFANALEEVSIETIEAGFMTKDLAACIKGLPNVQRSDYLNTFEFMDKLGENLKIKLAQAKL
T1 sequence (O75874 whole entry R132H): as the sequence (O75874 whole entry R132C) above, with C132H counted along it

A word on the pIC50: it is the negative decadic logarithm of the IC50, by convention in mol/L. As to `C[C@H](Nc1nccc2c1CN(CCO)C2=O)c1cc(F)c(-c2ccnc(C(C)(C)C)c2)cc1F` [Compound 159, (S)-4-((1-(4-(2-(tert-butyl)pyridin-4-yl)-2,5-difluorophenyl)ethyl)amino)-2-(2-hydroxyethyl)-2,3-dihydro-1H-pyrrolo[3,4-c]pyridin-1-one], the pIC50 (at IDH1 R132H; on IDH1 R132C; in assay [1]) was 6.30 to 7.00 throughout.
As to `CCN1Cc2c(ccnc2N[C@@H](C)c2cc(F)c(-c3cn(C(C)(C)C)cn3)cc2F)C1=O` [Compound 160, (S)-4-((1-(4-(1-(tert-butyl)-1H-imidazol-4-yl)-2,5-difluorophenyl)ethyl)amino)-2-ethyl-2,3-dihydro-1H-pyrrolo[3,4-c]pyridin-1-one], the pIC50 (on IDH1 R132H; at IDH1 R132C; in assay [1]) was 6.30 to 7.00 each time.
Consider `CCN1Cc2c(ccnc2N[C@@H](C)c2cc(F)c(-c3cc(C(C)(C)F)c(OCOC)cn3)cc2F)C1=O` [Compound 161, (S)-4-((1-(2,5-difluoro-4-(4-(2-fluoropropan-2-yl)-5-(methoxymethoxy)pyridin-2-yl)phenyl)ethyl)amino)-2-ethyl-2,3-dihydro-1H-pyrrolo[3,4-c]pyridin-1-one], for which the pIC50 (at IDH1 R132H; on IDH1 R132C; in assay [1]) was over 7.00 each time.
Consider `CCN1Cc2c(ccnc2N[C@@H](C)c2cc(F)c(-c3cc(C(C)(C)F)c(O)cn3)cc2F)C1=O` [Compound 162, (S)-4-((1-(2,5-difluoro-4-(4-(2-fluoropropan-2-yl)-5-hydroxypyridin-2-yl)phenyl)ethyl)amino)-2-ethyl-2,3-dihydro-1H-pyrrolo[3,4-c]pyridin-1-one], for which the pIC50 (on IDH1 R132H; on IDH1 R132C; in assay [1]) was 6.30 to 7.00 throughout.
In the case of `CCN1Cc2c(ccnc2N[C@@H](C)c2cc(F)c(-c3cc(C(C)(C)F)c(C#N)cn3)cc2F)C1=O` [Compound 163, (S)-6-(4-(1-((2-ethyl-1-oxo-2,3-dihydro-1H-pyrrolo[3,4-c]pyridin-4-yl)amino)ethyl)-2,5-difluorophenyl)-4-(2-fluoropropan-2-yl)nicotinonitrile], the pIC50 was over 7.00 on IDH1 R132H, 6.30 to 7.00 on IDH1 R132C and over 7.00 in assay [1].
For `CCN1Cc2c(ccnc2N[C@@H](C)c2cc(F)c(-c3cc(C(F)(F)F)c(O)cn3)cc2F)C1=O` [Compound 164, (S)-4-((1-(2,5-difluoro-4-(5-hydroxy-4-(trifluoromethyl)pyridin-2-yl)phenyl)ethyl)amino)-2-ethyl-2,3-dihydro-1H-pyrrolo[3,4-c]pyridin-1-one], the pIC50 on IDH1 R132H was 6.30 to 7.00; at IDH1 R132C it was 6.00 to 6.30; in assay [1], 6.00 to 6.30.
As for `CCN1Cc2c(ccnc2N[C@@H](C)c2cc(F)c(-c3cc(C(F)(F)F)c(OC)cn3)cc2F)C1=O` [Compound 165, (S)-4-((1-(2,5-difluoro-4-(5-methoxy-4-(trifluoromethyl)pyridin-2-yl)phenyl)ethyl)amino)-2-ethyl-2,3-dihydro-1H-pyrrolo[3,4-c]pyridin-1-one], the pIC50 (at IDH1 R132H; at IDH1 R132C; in assay [1]) was over 7.00 in each case.
